# Data: ChEMBL document CHEMBL2074303, “Transport of the glutathione conjugate of ethacrynic acid by the human multidrug resistance protein MRP” (FEBS Lett, 1996)
# How the values were obtained:
# [1] = target: Multidrug resistance-associated protein 1 (Homo sapiens, UniProt P33527); test: TP_TRANSPORTER: inhibition of DNP-SG uptake (DNP-SG: 10 uM, Glutathione S-conjugate of ethacrynic acid: 10uM) in membrane vesicles from S1(MRP) cells; format: functional, cell membranes, Membrane vesicle; parameters: scale not given: the % may be the effect or the level left
# [2] = target: Multidrug resistance-associated protein 1 (MRP1) (Homo sapiens, UniProt P33527); test: TP_TRANSPORTER: inhibition of DNP-SG uptake (DNP-SG: 10 uM, 4-Glutathionyl cyclophosphamide: 1000uM) in membrane vesicles from S1(MRP) cells; format: functional, cell membranes, Membrane vesicle; parameters: scale not given: the % may be the effect or the level left; conditions: probe DNP-SG, read-out: Activity
# Sequence of Multidrug resistance-associated protein 1 (MRP1) (P33527 whole entry): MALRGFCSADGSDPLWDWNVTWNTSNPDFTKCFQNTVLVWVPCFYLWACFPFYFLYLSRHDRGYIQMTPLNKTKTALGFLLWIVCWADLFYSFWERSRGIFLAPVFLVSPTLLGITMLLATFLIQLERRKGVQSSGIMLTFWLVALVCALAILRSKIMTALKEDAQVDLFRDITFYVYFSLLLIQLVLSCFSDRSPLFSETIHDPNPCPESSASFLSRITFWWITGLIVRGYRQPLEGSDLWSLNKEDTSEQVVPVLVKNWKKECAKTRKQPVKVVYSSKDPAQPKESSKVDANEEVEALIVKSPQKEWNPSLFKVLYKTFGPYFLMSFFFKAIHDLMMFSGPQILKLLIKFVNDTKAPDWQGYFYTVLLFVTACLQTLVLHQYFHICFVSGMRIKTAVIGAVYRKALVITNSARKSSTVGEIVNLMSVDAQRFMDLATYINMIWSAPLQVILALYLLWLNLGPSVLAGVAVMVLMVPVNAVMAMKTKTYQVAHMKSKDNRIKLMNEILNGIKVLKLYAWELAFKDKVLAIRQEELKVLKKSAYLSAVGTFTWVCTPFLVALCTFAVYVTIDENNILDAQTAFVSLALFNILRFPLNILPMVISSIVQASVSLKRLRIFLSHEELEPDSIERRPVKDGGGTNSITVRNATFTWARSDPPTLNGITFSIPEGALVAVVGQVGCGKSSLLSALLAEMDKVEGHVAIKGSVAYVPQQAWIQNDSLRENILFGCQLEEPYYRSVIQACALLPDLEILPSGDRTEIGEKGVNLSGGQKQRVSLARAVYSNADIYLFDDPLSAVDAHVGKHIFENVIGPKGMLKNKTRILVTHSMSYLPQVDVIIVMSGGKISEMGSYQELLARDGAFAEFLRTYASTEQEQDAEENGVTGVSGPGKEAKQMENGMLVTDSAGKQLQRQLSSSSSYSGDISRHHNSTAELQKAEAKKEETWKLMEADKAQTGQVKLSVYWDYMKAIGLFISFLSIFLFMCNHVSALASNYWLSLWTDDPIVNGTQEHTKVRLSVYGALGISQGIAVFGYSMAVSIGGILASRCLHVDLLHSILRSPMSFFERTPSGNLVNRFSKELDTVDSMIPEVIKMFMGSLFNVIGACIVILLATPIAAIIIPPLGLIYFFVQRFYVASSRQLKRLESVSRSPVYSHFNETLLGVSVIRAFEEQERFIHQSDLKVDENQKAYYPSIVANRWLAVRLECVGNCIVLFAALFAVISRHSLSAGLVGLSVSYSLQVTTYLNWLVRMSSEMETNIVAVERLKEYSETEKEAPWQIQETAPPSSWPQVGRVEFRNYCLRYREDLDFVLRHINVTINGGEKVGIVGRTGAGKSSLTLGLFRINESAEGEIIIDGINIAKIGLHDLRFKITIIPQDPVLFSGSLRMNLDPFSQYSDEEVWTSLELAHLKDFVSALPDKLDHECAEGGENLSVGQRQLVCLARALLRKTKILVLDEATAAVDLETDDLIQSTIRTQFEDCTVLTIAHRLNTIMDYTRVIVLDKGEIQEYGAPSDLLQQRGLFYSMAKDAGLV
# Sequence of Multidrug resistance-associated protein 1 (P33527 whole entry): as above
Structure (SMILES),Activity [1],activity at 1000 µM [2]
CCC(CSC[C@@H](NC(=O)CC[C@H](N)C(=O)O)C(=O)NCC(=O)O)C(=O)c1ccc(OCC(=O)O)c(Cl)c1Cl (some centres not stated),4%,–
NC(CCC(=O)NC(CSC1CCOP(=O)(N(CCCl)CCCl)N1)C(=O)NCC(=O)O)C(=O)O (configuration not stated),–,44%
